Results on two compounds are retold here after patent US4731470A, “[(5,6-dichloro-3-oxo-2,9a-alkano-2,3,9,9a-tetrahydro-1H-fluoren-7-yl)oxy] alkanoic acids and alkanimidamides” (Merck & Co., Inc., priority 1986, dated 1988).

The structures appear in SMILES notation.

Assay [1] has as its system cat cerebrocortical tissue slices. The experiment in a line: In vitro cat cerebrocortical tissue slice assay (HCO3^- -stimulated tissue swelling). The class given is cell-based. The following applies: Felis catus, read-out: percentage inhibition of tissue swelling (% Inhib.). The procedure: Using the in vitro cat cerebrocortical tissue slice assay, described in Example 1, compounds of the present invention can be tested for activity. This test provides the principal in vitro evaluation and consists of a determination of concentration vs. response curve. The addition of HCO3^- to isotonic, K^+ -rich saline-glucose incubation media is known to specifically stimulate the transport of Cl^- coupled with Na^+ and an osmotic equivalent of water in incubating slices of mammalian cerebral cortex. […] After addition of drug to the incubation media, detailed drug concentration-response curves are then obtained. The data are expressed as percent HCO3^- -stimulated swelling vs. drug concentration, from which the concentration of drug providing 50% inhibition of HCO3^- -stimulated swelling (I50 in molarity) is interpolated.
Adult cats of 2-3 kg body weight are employed in tissue slice studies. Prior to sacrifice, the animals are anesthetized with ketamine hydrochloride (Ketaset), 10 mg/kg intramuscularly. Eight (three control, five experimental) pial surface cerebrocortical tissue slices (0.5-mm thick; approximately 150 mg initial fresh weight) are cut successively with a calibrated Stadie-Riggs fresh tissue microtome without moistening and weighed successively on a torsion balance. During the slice preparation all operations except weighing are confined to a humid chamber. Each slice is rapidly placed in an individual Warburg flask containing 2 ml of incubation medium at room temperature. The basic composition of the incubation media, in millimoles per liter, is as follows: glucose, 10; CaCl2, 1.3; MgSO4, 1.2; KHSO4, 1.2; Hepes (N-2-hydroxyethylpiperazine-N'-2-ethanesulfonic acid, titrated with NaOH to pH 7.4), 20. Except when adding HCO3^-, the osmolarity of the media is maintained isosmotic (approximately 285 mOsm/L) by reciprocal changes of Na^+ or K^+ to achieve a concentration of K^+ of 27 mM. The basic medium was saturated with oxygen by bubbling pure oxygen through the solution for 30 minutes before use. […]
Following the 60-minute incubation period, tissue slices are separated from incubation medium by filtration, reweighed, and homogenized in 1N HClO4 (10% w/v) for electrolyte analysis. […] Control slice swelling is expressed as microliters per gram initial preswelling fresh weight. The effectiveness of an inhibitor at a given concentration is measured by the amount of HCO3^- -stimulated swelling that occurred in its presence, computed as a percent of the maximum possible. Tissue and media Na^+ and K^+ levels are determined by emission flame photometry with Li^+ internal standard; Cl^- levels are determined by amperometric titration. Tissue viability during incubation is monitored by manometry.

Assay [2] deals with animals receiving experimental in vivo head injury. The following applies: cited from earlier work.
The subject of assay [3] is clinical cases of head injury. The following applies: cited from earlier work.
Assay [4] has as its system astroglial edema. Particulars: cited from earlier work.

By inhibition is commonly meant the drop in the measured response relative to a control, in per cent. As for `O=C(O)COc1cc2c(c(Cl)c1Cl)C1=CC(=O)C3CCCC1(C2)C3` (racemic) [Example 2, [(5,6-Dichloro-3-oxo-2,9a-propano-2,3,9,9a-tetrahydro-1H-fluoren-7-yl)oxy]acetic acid], the inhibition at 1 µM in assay [1] (conc. 10^-6 M) worked out at 81%. Also, in assay [1] (conc. 10^-7 M), the inhibition at 0.1 µM turned out to be 54%. The inhibition at 0.01 µM in assay [1] (conc. 10^-8 M) came to 29%. In addition, the inhibition at 0.001 µM in assay [1] (conc. 10^-9 M) amounted to 10%.
Turning to `C=C(CC)C(=O)c1ccc(OCC(=O)O)c(Cl)c1Cl` [ethacrynic acid], the “activity in in vivo assays” value in assay [2] is “exhibited activity”. Moreover, the “reducing mortality in clinical cases of head injury” value in assay [3] is on record as “effective in reducing mortality”. The “activity in in vitro assays” value in assay [4] is recorded as “exhibited activity”.
